Like-named read-outs stand apart in the source and are kept apart here.
Experiments:
Huh7 cells = test: Total nuclear count in Huh7 cells; type: cell-based, human; details: effective concentrations
Protocol: Indeed, NUV-244 has no effect on total nuclear count at effective concentrations in Huh7 cells and we frequently observed mitotic cells in the Hoechst channel even after 24h incubation (data not shown). This indicates low toxicity of NUV-244 at effective concentrations. We validated this by recording the growth curves of different cell lines upon NUV-244 incubation and found no effects of 1μM or 5μM NUV-244 on the proliferative capacity of Hep3B cells, or Huh7 and LX-2 cells compared to DMSO treated cells (Figure 6A). PNPLA3 I148M expression has been reported to sensitize cells against lipotoxicity and to induce mitochondrial dysfunction.[32]^,[34]^,[35]^,[36]^,[37]
Assay plates were evaluated based on Z’ scores (>0.6) and signal-to-background ratio (>12) using Genedata Screener® for HTS and Condoseo modules (Genedata, Switzerland). Normalization, quality control, and fitting curves for EC50 determination of tested compounds were performed with Genedata Screener® for high-content screening and Genedata Condoseo modules (Genedata AG, Basel, Switzerland). More than 820K cpds were screened on 791 1536W plates in 11 runs covering three weeks of primary HTS. Automated image analysis routines were set up to quantify the number, morphology and intensity of nuclei, lipid droplets and the intensity of PNPLA3 I148M-tagRFP on lipid droplets. […]

PNPLA3 I148M-tagRFP = molecular target: T1, PNPLA3 I148M-tagRFP (Homo sapiens, UniProt Q9NST1, I148M); test: Huh7 PNPLA3 I148M-tagRFP reduction on lipid droplets (high-content imaging); type: cell-based
T1 construct: host or cells: Huh7
T1 sequence (Q9NST1 1-481 I148M): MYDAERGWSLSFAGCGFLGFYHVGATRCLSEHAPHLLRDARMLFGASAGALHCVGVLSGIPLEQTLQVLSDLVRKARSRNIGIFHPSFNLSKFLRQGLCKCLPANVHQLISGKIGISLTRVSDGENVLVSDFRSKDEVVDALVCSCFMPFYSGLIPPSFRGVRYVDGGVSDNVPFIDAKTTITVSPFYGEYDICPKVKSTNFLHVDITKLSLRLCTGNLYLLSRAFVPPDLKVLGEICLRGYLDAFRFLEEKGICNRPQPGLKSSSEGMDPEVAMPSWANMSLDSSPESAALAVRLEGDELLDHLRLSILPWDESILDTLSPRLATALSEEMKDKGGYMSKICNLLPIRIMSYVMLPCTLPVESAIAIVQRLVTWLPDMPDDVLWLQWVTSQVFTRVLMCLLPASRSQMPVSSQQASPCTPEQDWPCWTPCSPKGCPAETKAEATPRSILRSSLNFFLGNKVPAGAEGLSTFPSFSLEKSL
Protocol: For dose-response cells were seeded at 4000 c/30 μl per well in 384 well plates (Revvity, Waltham, MA, USA, PhenoPlate 384-well microplate, #6057308) and stored in a 37°C incubator with 5% CO2 and 95% humidity overnight. Compounds, serially diluted, and DMSO controls were added, and cells were incubated for another 24h. Cells were fixed and stained with a mixture of Paraformaldehyde (final 1%, Electron Microscopy Science), BODIPY (final 38 nM, Invitrogen) and Hoechst 33342 (final 2 μg/ml, Biotium) diluted in PBS for 30 min at room temperature in the dark (no wash off).
Confocal images were acquired using the Opera Phenix system (Revvity, USA) with a 10x, 20x or 40x water objective and excitation at 405 nm (Hoechst), 488 nm (BODIPY), and 532 nm (PNPLA3 I148M-tagRFP).
Images were analyzed using Harmony (Revvity) and MetaXpress software (Molecular Devices, USA) to quantify lipid droplet morphology and PNPLA3 I148M-tagRFP intensity.
Assay plates were evaluated based on Z’ scores (>0.6) and signal-to-background ratio (>12) using Genedata Screener® for HTS and Condoseo modules (Genedata, Switzerland). Normalization, quality control, and fitting curves for EC50 determination of tested compounds were performed with Genedata Screener® for high-content screening and Genedata Condoseo modules (Genedata AG, Basel, Switzerland). More than 820K cpds were screened on 791 1536W plates in 11 runs covering three weeks of primary HTS. Automated image analysis routines were set up to quantify the number, morphology and intensity of nuclei, lipid droplets and the intensity of PNPLA3 I148M-tagRFP on lipid droplets. Toxic or autofluorescent compounds were excluded from the hitlist based on nuclear count, area, and intensity measurements as well as lipid droplet staining intensity compared to control cells.

PNPLA3 I148M = molecular target: T2, PNPLA3 I148M (Homo sapiens, UniProt Q9NST1, I148M); test: Western blot anti-PNPLA3, Huh7 PNPLA3 I148M; type: cell-based; set-up: host or cells: Huh7; details: 5µM; 24h; two independent Western Blots, Mean +/- Stdev
T2 sequence (Q9NST1 1-481 I148M): T1 sequence (Q9NST1 1-481 I148M)
Protocol: For SDS-PAGE and subsequent western blotting cells were harvested in 1x lysis buffer (50 mM Tris-Cl, pH 7.5, 150 mM NaCl, 1 mM EDTA, 1% Triton X-100) supplemented with complete mini protease inhibitor cocktail (Roche). Total protein concentration of samples was determined with a Bicinchoninic Acid (BCA) protein assay. Cell lysates were boiled for 10 min at 99°C with 1x NuPAGE LDS Sample Buffer and loaded onto a 4-12% Tris-Glycine SDS-PAGE gel. For immunoblotting proteins were transferred to a nitrocellulose membrane (0.2 μm pore size, Schleicher & Schuell) and blocked with Intercept (PBS) Blocking buffer (Licor), incubated with primary antibodies anti-PNPLA3 (1:500, C-8 Santa Cruz, SC-390252), anti-PNPLA3 (1:1000, Millipore, MABS2174) and anti-HSP90 (1:1000, Cell Signaling, #4877), and subsequently incubated with secondary antibodies IRDye 680 or IRDye 800 (1:2000; LI-COR Biosciences). Infrared signal was detected using the Odyssey imaging system (Licor). […]
a. Huh7, PNPLA3 I148M b. Huh7, PNPLA3 I148M-tagRFP […]
control NUV-244 control NUV-244
Supplemental Fig. 9: Western Blot NUV-244 a. […] PNPLA3 bands at 53kDa (unmodified in a.) or 80 kDa (PNPLA3 I148M-tagRFP) were quantified (signal above local background, normalized to loading control using LICOR Odyssey CLx / Image Studio) on two independent Western Blots and percent of intensity compared to DMSO controls calculated (Mean +/ - Stdev). […]

effect on total nuclear count (Huh7 cells): no effect
EC50 (PNPLA3 I148M-tagRFP; HTS batch (hit), 24h, two independent determinations, read-out: EC50 Huh7, PNPLA3 I148M-tagRFP reduction): 2.28e-07 ± 3.1e-08 M
EC50 (PNPLA3 I148M-tagRFP; representative dose-response curve, Figure 2D, read-out: EC50 [M] Huh7, PNPLA3-I148M-tagRFP): 2.05e-07 M
EC50 (PNPLA3 I148M-tagRFP; representative dose-response curve, Figure 3B, read-out: EC50 [M] Huh7, PNPLA3 I148M-tagRFP): 3.51e-07 M
EC50 (PNPLA3 I148M-tagRFP; resynthesis, representative curve, Figure 4C, read-out: EC50 [M] Huh7, PNPLA3 I148M-tagRFP intensity on lipid droplets): 3.8e-07 M
PNPLA3 band, percent of intensity compared to DMSO controls (PNPLA3 I148M): 67+/-12%
SMILES: Cc1cccc(Cc2nc(C)c(C(=O)Nc3cc(O)ccc3Cl)s2)c1 [NUV-244]

Reference: paper PMC12049818, “Identification of NUV-244 as a PNPLA3 I148M degrading small molecule” (iScience, 2025)
